IC50 data for 12 compounds are collected here from the Kinase Knowledgebase extract (Sharma et al. 2016).

For orientation: IC50 means the concentration that inhibits the measured activity by half.

For the experiment, the target named is PIK3CD (Human) (UniProt O00329). Kind of experiment: Assessment of PIK3CD Kinase Activity.
PIK3CD (Human), sequence (O00329 whole entry, looked up): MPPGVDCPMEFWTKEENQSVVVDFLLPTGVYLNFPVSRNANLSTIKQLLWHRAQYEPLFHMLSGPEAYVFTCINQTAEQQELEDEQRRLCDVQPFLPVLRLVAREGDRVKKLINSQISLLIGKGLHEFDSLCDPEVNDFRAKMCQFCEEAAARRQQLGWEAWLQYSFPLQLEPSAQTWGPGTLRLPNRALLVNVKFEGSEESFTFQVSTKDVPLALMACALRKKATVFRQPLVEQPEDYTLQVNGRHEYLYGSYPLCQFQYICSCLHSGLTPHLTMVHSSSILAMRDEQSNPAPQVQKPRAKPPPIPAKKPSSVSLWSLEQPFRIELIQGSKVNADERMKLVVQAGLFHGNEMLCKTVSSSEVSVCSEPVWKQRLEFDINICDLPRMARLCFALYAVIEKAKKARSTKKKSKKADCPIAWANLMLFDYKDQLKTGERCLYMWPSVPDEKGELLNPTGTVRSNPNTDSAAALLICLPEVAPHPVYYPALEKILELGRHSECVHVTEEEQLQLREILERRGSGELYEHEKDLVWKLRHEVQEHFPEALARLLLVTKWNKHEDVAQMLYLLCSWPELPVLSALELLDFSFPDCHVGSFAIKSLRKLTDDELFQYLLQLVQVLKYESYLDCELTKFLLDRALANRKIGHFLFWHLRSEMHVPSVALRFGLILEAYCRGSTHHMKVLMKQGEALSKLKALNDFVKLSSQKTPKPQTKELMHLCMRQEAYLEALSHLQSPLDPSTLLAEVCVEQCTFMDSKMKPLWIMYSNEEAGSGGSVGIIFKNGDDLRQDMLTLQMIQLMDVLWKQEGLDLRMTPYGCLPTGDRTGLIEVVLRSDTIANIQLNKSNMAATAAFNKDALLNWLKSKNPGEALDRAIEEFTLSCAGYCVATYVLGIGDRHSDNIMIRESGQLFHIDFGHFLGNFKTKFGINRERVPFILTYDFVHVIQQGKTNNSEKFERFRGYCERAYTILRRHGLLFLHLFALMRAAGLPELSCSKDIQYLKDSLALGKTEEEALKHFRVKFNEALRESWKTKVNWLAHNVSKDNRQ
The compound `Fc1ccc2[nH]ccc2c1-c1nc(N2CCOCC2)c2cc(CN3C[C@@H]4C[C@H]3CN4)ccc2n1` registered an IC50 below 500 nM.
Next, `Fc1cc(-c2nc(N3CCOCC3)c3cc(CN4CCC(N5CCOCC5)CC4)ccc3n2)c2cc[nH]c2c1`: below 500 nM.
Next, `c1cc(-c2nc(N3CCOCC3)c3cc(CN4CC5CCC(C4)N5)ccc3n2)c2cc[nH]c2c1`: below 500 nM.
In turn, `c1cc(-c2nc(N3CCOCC3)c3cc(CN4CCC(N5CCOCC5)CC4)ccc3n2)c2cc[nH]c2c1` yielded an IC50 below 500 nM.
In turn, `c1cc(-c2nc(N3CCOCC3)c3cc(CN4CC5CNCC5C4)ccc3n2)c2cc[nH]c2c1` (configuration not stated) displayed an IC50 below 500 nM.
On to `OCCN1CCN(Cc2ccc3nc(-c4cccc5[nH]ccc45)nc(N4CCOCC4)c3c2)CC1`, for which the IC50 was below 500 nM.
Next, `c1cc(-c2nc(N3CCOCC3)c3cc(CN4CCN5CCC[C@H]5C4)ccc3n2)c2cc[nH]c2c1`: below 500 nM.
Next, `CN1CCN(Cc2ccc3nc(-c4cccc5[nH]ccc45)nc(N4CCOCC4)c3c2)CC1`: below 500 nM; `C[C@@H]1CN(Cc2ccc3nc(-c4cccc5[nH]ccc45)nc(N4CCOCC4)c3c2)C[C@H](C)N1`: below 500 nM.
Take `CN1CCC(N(C)Cc2ccc3nc(-c4cc(F)cc5[nH]ccc45)nc(N4CCOCC4)c3c2)CC1`: the IC50 was below 500 nM.
As for `c1cc(-c2nc(N3CCOCC3)c3cc(CN4CC5(CCNCC5)C4)ccc3n2)c2cc[nH]c2c1`, the figure is below 500 nM; as for `CN1CCC(N(C)Cc2ccc3nc(-c4cccc5[nH]ccc45)nc(N4CCOCC4)c3c2)CC1`, below 500 nM.
